Source: patent publication US7935711B2, “HIV inhibiting 2-(4-cyanophenylamino) pyrimidine oxide derivatives” (priority 2005, dated 2011)

Tests used:
[1] = test system: HIV strain E, mutations L100I and K103N in HIV reverse transcriptase; assay: Antiviral spectrum, cellular assay, strain E; assay type: cell-based; settings: Human immunodeficiency virus 1, read-out: pEC50 E (converted)
Protocol: (§1) Because of the increasing emergence of drug resistant HIV strains, the present compounds were tested for their potency against clinically isolated HIV strains harboring several mutations. These mutations are associated with resistance to reverse transcriptase inhibitors and result in viruses that show various degrees of phenotypic cross-resistance to the currently commercially available drugs such as for instance AZT and delavirdine.
(§2) The antiviral activity of the compound of the present invention is evaluated in the presence of wild type HIV and HIV mutants bearing mutations at the reverse transcriptase gene. The activity of the compounds is evaluated using a cellular assay and the residual activity is expressed in pEC50 values. The columns IIIB and A-G in the table list the pEC50 values against various strains IIIB, A-G.
Strain E contains mutations L100I and K103N in HIV reverse transcriptase, […]

[2] = test system: wild type HIV-LAI strain (IIIB); assay: Antiviral spectrum, cellular assay, strain IIIB; assay type: cell-based; settings: Human immunodeficiency virus 1
Protocol: as §1, §2
Strain IIIB is wild type HIV-LAI strain;

[3] = test system: HIV strain C, mutation L100I in HIV reverse transcriptase; assay: Antiviral spectrum, cellular assay, strain C; assay type: cell-based; settings: Human immunodeficiency virus 1, read-out: pEC50 C (converted)
Protocol: as §1, §2
Strain C contains mutation L100I in HIV reverse transcriptase, […]

[4] = test system: HIV strain F, mutations K101E and K103N in HIV reverse transcriptase; assay: Antiviral spectrum, cellular assay, strain F; assay type: cell-based; settings: Human immunodeficiency virus 1, read-out: pEC50 F (converted)
Protocol: as §1, §2
Strain F contains mutations K101E and K103N in HIV reverse transcriptase.

[5] = test system: HIV strain B, mutation K103N in HIV reverse transcriptase; assay: Antiviral spectrum, cellular assay, strain B; assay type: cell-based; settings: Human immunodeficiency virus 1, read-out: pEC50 B (converted)
Protocol: as §1, §2
Strain B contains mutation K103N in HIV reverse transcriptase, […]

[6] = test system: HIV strain A, mutation Y181C in HIV reverse transcriptase; assay: Antiviral spectrum, cellular assay, strain A; assay type: cell-based; settings: Human immunodeficiency virus 1, read-out: pEC50 A (converted)
Protocol: as §1, §2
Strain A contains mutation Y181C in HIV reverse transcriptase, […]

[7] = test system: HIV strain D, mutation Y188L and S162K in HIV reverse transcriptase; assay: Antiviral spectrum, cellular assay, strain D; assay type: cell-based; settings: Human immunodeficiency virus 1, read-out: pEC50 D (converted)
Protocol: as §1, §2
Strain D contains mutation Y188L and S162K in HIV reverse transcriptase, […]

SMILES | EC50 [1] [nM] | EC50 [2] [nM] | EC50 [3] [nM] | EC50 [4] [nM] | EC50 [5] [nM] | EC50 [6] [nM] | EC50 [7] [nM] | melting point [°C]
Cc1cc(C#N)cc(C)c1Oc1nc(Nc2ccc(C#N)cc2)[n+]([O-])c(N)c1Br [Compound 1] | 1.07 | 0.575 | 0.631 | 1.05 | 1.41 | 0.631 | 0.603 | 271
Cc1cc(C#N)cc(C)c1Oc1nc(Nc2ccc(C#N)cc2)nc(N)c1Br [Compound A, 4-[[6-amino-5-bromo-2-[(4-cyanophenyl)amino]-4-pyrimidinyl]oxy]-3,5-dimethylbenzonitrile, reference compound] | 8.13 | 2.82 | 2.88 | 4.57 | 1.78 | 10 | 2.45 | –
